The experiment deals with T1, human LXRβ (AA 153-461) LBD (Homo sapiens, UniProt P55055).
T1 construct: pM human LXRβ (AA 153-461) LBD plasmid; expressed in transfected cells; host or cells: HEK 293
T1 sequence (P55055 153-460 limits assumed): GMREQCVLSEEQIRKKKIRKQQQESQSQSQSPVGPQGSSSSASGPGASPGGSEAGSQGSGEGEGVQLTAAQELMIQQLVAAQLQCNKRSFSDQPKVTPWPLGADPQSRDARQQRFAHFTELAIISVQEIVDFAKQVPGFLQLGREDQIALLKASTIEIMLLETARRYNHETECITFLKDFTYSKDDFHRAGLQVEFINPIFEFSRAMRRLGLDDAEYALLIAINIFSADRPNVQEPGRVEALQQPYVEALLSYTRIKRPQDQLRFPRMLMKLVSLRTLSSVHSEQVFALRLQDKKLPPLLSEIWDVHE
The experiment is described as follows: Gal4 LXRβ cotransfection assay (LXRβ Gal fusion assay). It counts as cell-based. To be noted: HEK 293 cells, Gal4-responsive luciferase reporter, compounds 0.01-10 μM. The protocol:
For transient transfection of HEK 293 cells, 6×10^3 cells were plated into 96-well dishes. Each well was transfected with 25 ng 5×UAS-luciferase reporter (pG5luc) and 25 ng of pM human LXRβ (AA 153-461) LBD plasmid using Fugene 6 reagent (Roche; Indianapolis, Ind.). The chimeric protein was assessed for the ability to transactivate a Gal4-responsive luciferase reporter plasmid in a concentration-responsive manner to compounds (0.01-10 μM). Luciferase activity at each dose concentration was measured in triplicate using standard substrate reagents (BD Biosciences; San Diego, Calif.). Data are expressed as relative light units and are shown below in Table 1.
A general note: In a reporter assay the amount or activity of a reporter protein is the signal.
The term EC50 denotes the concentration at which the effect is half-maximal. Compound `COC(=O)c1cc(-c2nnc(-c3cccc(S(C)(=O)=O)c3)s2)n(-c2ccccc2Cl)n1` [Compound 9, methyl 1-(2-chlorophenyl)-5-(5-(3-(methylsulfonyl)phenyl)-1,3,4-thiadiazol-2-yl)-1H-pyrazole-3-carboxylate] registered an EC50 of 1000 to 10000 nM.

Regarding `CS(=O)(=O)c1cccc(-c2nnc(-c3cc(C(=O)O)nn3-c3ccccc3Cl)s2)c1` [Compound 10, 1-(2-chlorophenyl)-5-(5-(3-(methylsulfonyl)phenyl)-1,3,4-thiadiazol-2-yl)-1H-pyrazole-3-carboxylic acid], the EC50 is greater than 10000 nM.

In turn, `COC(=O)c1cc(-c2nnc(-c3cccc(S(C)(=O)=O)c3)o2)n(-c2ccccc2Cl)n1` [Compound 11, methyl 1-(2-chlorophenyl)-5-(5-(3-(methylsulfonyl)phenyl)-1,3,4-oxadiazol-2-yl)-1H-pyrazole-3-carboxylate] registered a concentration giving a half-maximal response (EC50) of less than 1000 nM.

For `CS(=O)(=O)c1cccc(-c2nnc(-c3cc(C(=O)O)nn3-c3ccccc3Cl)o2)c1` [Compound 12, 1-(2-chlorophenyl)-5-(5-(3-(methylsulfonyl)phenyl)-1,3,4-oxadiazol-2-yl)-1H-pyrazole-3-carboxylic acid], the EC50 was greater than 10000 nM.

Compound `CCOC(=O)Cn1nc(C(F)(F)F)cc1-c1ccc(-c2cccc(S(C)(=O)=O)c2)s1` [Compound 16, ethyl 2-(5-(5-(3-(methylsulfonyl)phenyl)thiophen-2-yl)-3-(trifluoromethyl)-1H-pyrazol-1-yl)acetate] displayed an EC50 of less than 1000 nM.

On to `COC(=O)Cn1nc(C(F)(F)F)cc1-c1ccc(-c2cccc(S(C)(=O)=O)c2)s1` [Compound 18, methyl 2-(5-(5-(3-(methylsulfonyl)phenyl)thiophen-2-yl)-3-(trifluoromethyl)-1H-pyrazol-1-yl)acetic acid], for which the EC50 is greater than 10000 nM.

The compound `CCOC(=O)Cn1nc(C(F)(F)F)cc1-c1ccc(-c2cccc(S(C)(=O)=O)c2)cc1` [Compound 36, ethyl 2-(5-(3′-(methylsulfonyl)-[1,1′-biphenyl]-4-yl)-3-(trifluoromethyl)-1H-pyrazol-1-yl)acetate] had a concentration giving a half-maximal response (EC50) of less than 1000 nM.

With `CS(=O)(=O)c1cccc(-c2ccc(-c3cc(C(F)(F)F)nn3CC(=O)O)cc2)c1` [Compound 38, 2-(5-(3′-(methylsulfonyl)-[1,1′-biphenyl]-4-yl)-3-(trifluoromethyl)-1H-pyrazol-1-yl)acetic acid], the EC50 is greater than 10000 nM.

`CSCOC(=O)Cn1nc(C(F)(F)F)cc1-c1ccc(-c2cccc(S(C)(=O)=O)c2)cc1` [Compound 41, methylthiomethyl 2-(5-(3′-(methylsulfonyl)biphenyl-4-yl)-3-(trifluoromethyl)-1H-pyrazol-1-yl)acetate] yielded a concentration for a half-maximal effect (EC50) of 1000 to 10000 nM.

Regarding `CC(C)OC(=O)Cn1nc(C(F)(F)F)cc1-c1ccc(-c2cccc(S(C)(=O)=O)c2)s1` [Compound 49], the EC50 was less than 1000 nM.

Consider `CCOC(=O)Cn1nc(C(F)(F)F)cc1-c1ccc(-c2ccc(CO)c(S(C)(=O)=O)c2)s1` [Compound 50, ethyl 2-(5-(5-(4-(hydroxymethyl)-3-(methylsulfonyl)phenyl)thiophen-2-yl)-3-(trifluoromethyl)-1H-pyrazol-1-yl)acetate], for which the EC50 was less than 1000 nM.

Take `CCOC(=O)Cn1nc(C(F)(F)F)cc1-c1ccc(-c2ccc(CO)c(S(C)(=O)=O)c2)cc1` [Compound 51, ethyl 2-(5-(4′-(hydroxymethyl)-3′-(methylsulfonyl)biphenyl-4-yl)-3-(trifluoromethyl)-1H-pyrazol-1-yl)acetate]: the EC50 was less than 1000 nM.

Compound `CS(=O)(=O)c1cccc(-c2ccc(-c3cc(C(F)(F)F)nn3CC(=O)OCCl)s2)c1` [Compound 52, chloromethyl 2-(5-(5-(3-(methylsulfonyl)phenyl)thiophen-2-yl)-3-(trifluoromethyl)-1H-pyrazol-1-yl)acetate] registered a half-maximal effective concentration (EC50) of less than 1000 nM.

(Values after US9637481B2 (RALEXAR THERAPEUTICS, INC., priority 2012, dated 2017).)
